For data set [1], the system named is fresh CLL patient lymphocytes.
Procedure: (§1) Cell viability was measured using a luciferase-based ATP quantitation assay (CellTiter-Glo^TM, Promega). The intracellular ATP content indicates the number of viable (i.e. metabolically competent) cells after compound treatment. […] After that, a total of 23 nL of compounds at 8 selected concentrations from the NPC library or positive control (10 mM stock of doxorubicin hydrochloride) in DMSO was transferred to each well of the assay plate using a pintool (Kalypsys, San Diego, CA), and the plates were further incubated at 37 °C with 5% CO2 for 24 hours to allow the reaction. Then 4µL of CellTilter-Glo luminescent substrate mix was added to each well. The plate was incubated at room temperature for 15 minutes. The plates were measured on a ViewLux plate reader (PerkinElmer) with clear filter. […] The test volume of 5,000 cells/4 μL/well was selected as the final assay condition in cell density tests based on the assay performance statistics: signal/background ratio, coefficient of variation and Z’-factor (data not shown).
(§2) Fresh primary cells were also obtained from two unaffected normal donors and seven CLL patients whose blood samples were collected within hours of apheresis and which had not been included in our previous experiments.
Data set [2] has as its system lymphocytes from normal donors. The conditions noted are these: read-out: IC50 normal; average of 2 normal donors, fresh, Figure 5.
Procedure: Cell viability was measured using a luciferase-based ATP quantitation assay (CellTiter-Glo^TM, Promega). The intracellular ATP content indicates the number of viable (i.e. metabolically competent) cells after compound treatment. Four µL of CLL cells resuspended in AIM medium at 1,330,000 cells/ml, were dispensed into each well of white, solid bottom, 1536-well tissue culture–treated plates using a Multidrop-Combi dispenser and incubated overnight. After that, a total of 23 nL of compounds at 8 selected concentrations from the NPC library or positive control (10 mM stock of doxorubicin hydrochloride) in DMSO was transferred to each well of the assay plate using a pintool (Kalypsys, San Diego, CA), and the plates were further incubated at 37 °C with 5% CO2 for 24 hours to allow the reaction. Then 4µL of CellTilter-Glo luminescent substrate mix was added to each well. The plate was incubated at room temperature for 15 minutes. The plates were measured on a ViewLux plate reader (PerkinElmer) with clear filter.
These compounds were then re-tested in the cell viability assay using 12 point titrations with concentration ranging from 57 µM to 0.3 nM with 1:3 dilution.
as §2
The test system of data set [3] is fresh CLL patient lymphocytes. Put plainly: cells. The conditions noted are these: Homo sapiens, Lymphocyte, 24 h.
Procedure: as §1, §2
The test system of data set [4] is primary CLL cells. Put plainly: qHTS luminescent ATP cell viability assay (CellTiter-Glo), primary screen, frozen CLL patient cells. It is filed as cell-based, human. The conditions noted are these: for IC50 / Emax: Homo sapiens, CLL cell; for cytotoxicity across CLL cell samples: six CLL patient samples, primary screen; for Emax: CLL cells, 24 h, normalized to doxorubicin control, read-out: efficacy (maximal response). The source says: Lymphocytes from 13 CLL treatment naïve patients (Table 1 ) and 5 normal donors were obtained by lymphapheresis with written informed consent and isolated by gradient centrifugation using Lymphocyte Separation Medium (MP Biomedicals, Solon, OH) and used fresh or cryopreserved in liquid nitrogen in 10% dimethyl sulfoxide, 90% FCS. CLL patients were consented on the institutional review board (IRB) approved at the National Heart, Lung, and Blood Institute (NHLBI, Office of Clinical Affairs, Bldg 10, CRC. Room 6-5140, Bethesda, Maryland 20892-1608) with protocol 04-H-0012 and samples from normal donors were collected by the Department of Transfusion Medicine, National Institutes of Health (NIH). This study was approved by the IRB mentioned above. Fresh cells were temporally placed on ice and plated for screening within 3 hrs of apheresis. Frozen cells were thawed the night before the assay and incubated in T175 flask in AIM V medium to recover overnight. Analysis of IGHV gene status was performed as described. CLL samples were cultured in AIM V serum free medium (Gibco-Invitrogen, Long Island, NY).
Compound formatting and qHTS were performed as described previously. The final concentration of the NPC compounds in the 4 µL assay volume ranged from 57 µM to 0.7 nM in 1:5 dilution steps. The positive control plate format was as follows: columns 1 and 3, DMSO only; column 2, doxorubicin, a known cytotoxic chemotherapy agent in a 1:2 dilution series from 10 µM to 5 nM in DMSO; and column 4, doxorubicin at 10 µM in DMSO.
To determine compound activity in the qHTS assay, the concentration-response data for each sample was plotted and modeled by a four parameter logistic fit yielding IC50 and efficacy (maximal response) values as previously described. Data normalization and curve fitting were performed using in-house informatics tools. Briefly, raw plate reads for each titration point were first normalized relative to the positive control compound (100%) and DMSO-only wells (basal, 0%), and then corrected by applying a pattern correction algorithm using compound-free control plates (i.e., DMSO-only plates) at the beginning and end of the NPC compound plate stack. […] In brief, Class 1.1 and 1.2 were the highest-confidence complete CRCs containing upper and lower asymptotes with efficacies ≥ 80% and < 80%, respectively. Class 2.1 and 2.2 were incomplete CRCs having only one asymptote with efficacy ≥ 80% and < 80%, respectively.
Compounds from the primary qHTS screen were further classified into three categories according to the quality of curve fit and efficacy.

Where [5] appears, read: confirmation assay, fresh CLL samples, Table S1.

This is an account of results in PMC3779154, “Identification of Therapeutic Candidates for Chronic Lymphocytic Leukemia from a Library of Approved Drugs” (PLoS ONE, 2013).

Where a name gives a salt, the structure may show the parent alone. Read-outs that look alike come from different tables or passages of the source. Starred links: 1 amine or outer side, 2 acyl side, 3 side chain; linkers in the order of their positions; H or OH if unused. Positions of bridges follow the written chain, without caps; N, C: chain ends. Non-standard residues stand in square brackets, D forms with d. Residues, ends and D or L forms follow the SMILES beside them. Chains are numbered I, II in the order given. Actinocin(9to1) = Cc1c2oc3c(C)ccc(C(=O)[*:1])c3nc-2c(C(=O)[*:2])c(N)c1=O; NMeV = CN[C@H](C(=O)O)C(C)C; Sar = CNCC(=O)O A value given as a limit tells only on which side of the number the result lay.

With `Nc1nc(F)nc2c1ncn2[C@@H]1O[C@H](CO)[C@@H](O)[C@@H]1O` [fludarabine], the IC50 came to 12.2 µM in data set [1] (read-out: IC50 CLL, average of cells from 7 CLL patients, fresh, Figure 5); 12 µM in data set [1] (read-out: potency, comparable cell killing against CLL cells and normal lymphocytes); 9.4 µM in data set [2].
`CC(=O)[C@]1(O)Cc2c(O)c3c(c(O)c2[C@@H](O[C@H]2C[C@H](N)[C@H](O)[C@H](C)O2)C1)C(=O)c1ccccc1C3=O` [idarubicin]: the IC50 in data set [3] (setting [5]) is less than 1 µM; in data set [4] (CLL patient #4705), 3.2 µM; in data set [4] (CLL patient #4789), 0.1 µM; in data set [4] (CLL patient #4808), 0.1 µM. For the same compound, the potency shift in data set [4] (patient #4705 compared to #4789 and #4808) is on record as 32 fold.
The compound `COc1cc2c(cc1O)CCN[C@]21CS[C@@H]2c3c(OC(C)=O)c(C)c4c(c3[C@H](COC1=O)N1[C@@H]2[C@H]2c3c(cc(C)c(OC)c3O)C[C@@H]([C@@H]1O)N2C)OCO4` [trabectedin] came in with an IC50 in data set [3] (setting [5]) of less than 1 µM. In addition, the “cytotoxicity across CLL cell samples” value in data set [4] is “cytotoxicity in all CLL cell samples at similar concentrations”.
As to `COc1cc([C@@H]2c3cc4c(cc3[C@@H](O[C@@H]3O[C@@H]5CO[C@@H](c6cccs6)O[C@H]5[C@H](O)[C@H]3O)[C@H]3COC(=O)[C@H]23)OCO4)cc(OC)c1O` [teniposide], in data set [4], the Emax is less than 80%.
Compound `CC(C)C[C@H](NC(=O)[C@H](Cc1ccccc1)NC(=O)c1cnccn1)B(O)O` [bortezomib] registered an IC50 in data set [3] (setting [5]) of less than 1 µM. Moreover, the “cytotoxicity across CLL cell samples” value in data set [4] is listed as “cytotoxicity in all CLL cell samples at similar concentrations”.
Take `CC[C@@]1(O)C[C@H](O[C@H]2C[C@H](N(C)C)[C@H](O[C@H]3C[C@H](O)[C@H](O[C@H]4CCC(=O)[C@H](C)O4)[C@H](C)O3)[C@H](C)O2)c2c(cc3c(c2O)C(=O)c2c(O)cccc2C3=O)[C@H]1C(=O)OC` [aclarubicin hydrochloride]: in data set [3], the IC50 is less than 1 µM.
On the same count and under the same terms, for `CO[C@@H]1[C@H](O)C[C@@H](O[C@@H]2C[C@H](Oc3cc4cc5c(c(O)c4c(O)c3C)C(=O)[C@@H](O[C@H]3C[C@@H](O[C@H]4C[C@@H](O[C@H]6C[C@](C)(O)[C@@H](OC(C)=O)[C@H](C)O6)[C@H](O)[C@@H](C)O4)[C@H](O)[C@@H](C)O3)[C@H]([C@H](OC)C(=O)[C@@H](O)[C@@H](C)O)C5)O[C@H](C)[C@@H]2OC(C)=O)O[C@@H]1C` [chromomycin A3] the value was less than 1 µM.
In data set [3] (setting [5]), `COC(=O)C[C@](O)(CCCC(C)(C)O)C(=O)O[C@@H]1C(OC)=C[C@]23CCCN2CCc2cc4c(cc2[C@H]13)OCO4` [omacetaxine mepesuccinate] showed an IC50 of less than 1 µM.
With `CC[C@]1(O)C[C@H]2CN(CCc3c([nH]c4ccccc34)[C@@](C(=O)OC)(c3cc4c(cc3OC)N(C=O)[C@H]3[C@@](O)(C(=O)OC)[C@H](OC(C)=O)[C@]5(CC)C=CCN6CC[C@]43[C@@H]65)C2)C1` [vincristine], the IC50 in data set [1] (confirmation assay, fresh CLL samples, 24 h, Table S1) is less than 1 µM.
For the compound `CC[C@]1(O)C[C@@H]2CN(CCc3c([nH]c4ccccc34)[C@@](C(=O)OC)(c3cc4c(cc3OC)N(C)[C@H]3[C@@](O)(C(=O)OC)[C@H](OC(C)=O)[C@]5(CC)C=CCN6CC[C@]43[C@@H]65)C2)C1` [vinblastine], the “fold more potent in CLL sample #4808 than #4399” value in data set [4] (CLL sample #4808 vs #4399) is listed as greater than 100 fold. Also, the Emax in data set [4] was greater than 80%.
Compound `Cc1c2oc3c(C)ccc(C(=O)N[C@@H]4C(=O)N[C@H](C(C)C)C(=O)N5CCC[C@H]5C(=O)N(C)CC(=O)N(C)[C@@H](C(C)C)C(=O)O[C@@H]4C)c3nc-2c(C(=O)N[C@@H]2C(=O)N[C@H](C(C)C)C(=O)N3CCC[C@H]3C(=O)N(C)CC(=O)N(C)[C@@H](C(C)C)C(=O)O[C@@H]2C)c(N)c1=O` [actinomycin D] (I: T[dV]P[Sar][NMeV] / II: T[dV]P[Sar][NMeV]; ester I:1-I:C, II:1-II:C; linker I:N-II:N via Actinocin(9to1)) yielded an IC50 in data set [3] of less than 1 µM.
Compound `Cn1c(CCCC(=O)O)nc2cc(N(CCCl)CCCl)ccc21` [bendamustine] came in with an IC50 in data set [3] of 12 to 30 µM.
